Patent publication US20150018311A1, “THERAPEUTIC BORON-CONTAINING COMPOUNDS” (priority 2012, published 2015)

What was measured:
Assay in all cases: Growth in liquid media in presence of test compound
Type in all cases: cell-based
[1] = test system: Mycobacterium tuberculosis (H37Rv)
[2] = test system: Candida albicans (ATCC 90028)
[3] = test system: Escherichia coli (ATCC 25922)
[4] = test system: Pseudomonas aeruginosa (ATCC 27853)
[5] = test system: Staphylococcus aureus (ATCC 25923)
[6] = test system: Streptococcus pyogenes (ATCC 19615)

Row | Structure (SMILES) | Growth in the presence of test compound, M. tuberculosis ([1]; 5 mg/L) | Growth in the presence of test compound, M. tuberculosis ([1]; 50 mg/L) | Growth in the presence of test compound, M. tuberculosis ([1]; 500 mg/L) | Growth in the presence of test compound, C. albicans ([2]; 5 mg/L) | Growth in the presence of test compound, C. albicans ([2]; 50 mg/L) | Growth in the presence of test compound, C. albicans ([2]; 500 mg/L) | Growth in the presence of test compound, E. coli ([3]; 5 mg/L) | Growth in the presence of test compound, E. coli ([3]; 50 mg/L) | Growth in the presence of test compound, E. coli ([3]; 500 mg/L) | Growth in the presence of test compound, P. aeruginosa ([4]; 5 mg/L) | Growth in the presence of test compound, P. aeruginosa ([4]; 50 mg/L) | Growth in the presence of test compound, P. aeruginosa ([4]; 500 mg/L) | Growth in the presence of test compound, S. aureus ([5]; 5 mg/L) | Growth in the presence of test compound, S. aureus ([5]; 50 mg/L) | Growth in the presence of test compound, S. aureus ([5]; 500 mg/L) | Growth in the presence of test compound, S. pyogenes ([6]; 5 mg/L) | Growth in the presence of test compound, S. pyogenes ([6]; 50 mg/L) | Growth in the presence of test compound, S. pyogenes ([6]; 500 mg/L)
1 | CC(B1OC2CC3CC(C3(C)C)C2(C)O1)C(Cc1ccccc1)NC(=O)C(N)CCCCN (stereo not drawn) [Compound 30] | + | − | − | + | + | − | + | + | − | + | + | − | + | + | − | + | + | −
2 | C[C@H](N)C(=O)NC[C@H](Cc1ccccc1)B1OC2CC3CC(C3(C)C)[C@]2(C)O1 (stereo partly drawn) [Compound 15] | + | − | − | + | + | − | + | + | ± | + | + | + | + | + | − | + | + | +
3 | CC1(C)C2CC3OB(C(CNC(=O)C(N)CCCCN)Cc4ccccc4)OC3(C)C1C2 (stereo not drawn) [Compound 13] | + | − | − | + | + | − | + | + | − | + | + | − | + | + | − | + | + | −
4 | Cl.N[C@@H](Cc1ccccc1)C(=O)NC[C@@H](Cc1ccc(OC(F)(F)F)cc1)B(O)O [Compound 57] | + | − | − | + | + | − | + | + | ± | + | + | − | + | + | + | + | + | −
5 | CC1(C)C2CC3OB([C@@H](CNC(=O)[C@H](N)Cc4ccccc4)Cc4ccccc4)O[C@]3(C)C1C2 (stereo partly drawn) [Compound 41] | + | ± | ± | + | ± | ± | + | + | + | + | + | + | + | + | ± | + | + | ±
6 | Cl.Cl.NCCCC[C@@H](N)C(=O)NC[C@@H](Cc1ccccc1)B(O)O [Compound 48] | ± | − | − | + | + | + | + | + | + | + | + | + | + | + | + | + | + | +
7 | CC(B1OC2CC3CC(C3(C)C)C2(C)O1)C(Cc1ccccc1)NC(=O)C(Cc1ccccc1)NC(=O)C(N)CCCCN (stereo not drawn) [Compound 36] | + | − | − | + | + | ± | + | + | − | + | + | − | + | + | − | + | + | −
8 | CC1(C)C2CC3OB(C(CNC(=O)C(N)CCCCN)Cc4ccc(OC(F)(F)F)cc4)OC3(C)C1C2.Cl.Cl (stereo not drawn) [Compound 47] | + | − | − | + | + | − | + | + | − | + | + | − | + | + | − | + | + | −
9 | CC1(C)C2CC3OB([C@H](CCc4ccccc4)CNC(=O)[C@H](N)CCCCN)O[C@]3(C)C1C2 (stereo partly drawn) [Compound 20] | + | − | − | + | ± | ± | + | + | + | + | ± | ± | + | − | ± | + | ± | ±
10 | CC1(C)C2CC3OB(C[C@@H](Cc4ccccc4)NC(=O)[C@H](Cc4ccccc4)NC(=O)[C@@H](N)Cc4ccccc4)O[C@]3(C)C1C2.Cl (stereo partly drawn) [Compound 45] | + | − | + | + | + | − | + | + | + | + | + | + | + | ± | + | + | + | +
